Data as given in patent US9029377B2, “Platelet-activating factor receptor antagonists” (Merck Sharp & Dohme Corp., priority 2009, dated 2015).

Biological target: PAFR (Homo sapiens, UniProt P25105)
Experiment: PAF Binding Assay (PAFR binding)

Chain of PAFR (P25105 whole entry): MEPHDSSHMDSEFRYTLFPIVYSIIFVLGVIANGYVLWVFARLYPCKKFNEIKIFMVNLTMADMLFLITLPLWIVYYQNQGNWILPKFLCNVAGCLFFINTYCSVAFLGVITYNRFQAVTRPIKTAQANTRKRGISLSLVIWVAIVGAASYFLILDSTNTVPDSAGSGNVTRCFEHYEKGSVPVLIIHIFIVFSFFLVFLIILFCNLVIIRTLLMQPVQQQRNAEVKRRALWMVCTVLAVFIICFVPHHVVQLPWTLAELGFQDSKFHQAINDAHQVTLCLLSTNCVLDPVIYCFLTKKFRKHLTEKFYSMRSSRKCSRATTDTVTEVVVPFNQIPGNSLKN

COc1ncccc1-c1cc(C(F)(F)F)cc(S(=O)(=O)N[C@H]2CCC[C@@H](n3cnnc3)C2)c1 [Compound 3Ag, 3-(2-methoxypyridin-3-yl)-N-[(1S,3R)-3-(4H-1,2,4-triazol-4-yl)cyclohexyl]-5-(trifluoromethyl)benzenesulfonamide]
IC50: 4.5 nM

O=S(=O)(N[C@H]1CCC[C@@H](n2cnnc2)C1)c1ccc(-c2ccc(OC(F)F)cc2)c(F)c1 [Compound 2Ec, 4′-(difluoromethoxy)-2-fluoro-N-[(1S,3R)-3-(4H-1,2,4-triazol-4-yl)cyclohexyl]biphenyl-4-sulfonamide]
IC50: 2.6 nM

CCc1cc(-c2cccnc2O)ccc1S(=O)(=O)N[C@H]1CCC[C@@H](n2cnnc2)C1 [Compound 2Aag, 2-ethyl-4-(2-hydroxypyridin-3-yl)-N-[(1S,3R)-3-(4H-1,2,4-triazol-4-yl)cyclohexyl]benzenesulfonamide]
IC50: 167 nM

O=S(=O)(N[C@H]1CCC[C@@H](n2cnnc2)C1)c1cc(-c2ccncc2)cc(C(F)(F)F)c1 [Compound 3An, 3-pyridin-4-yl-N-[(1S,3R)-3-(4H-1,2,4-triazol-4-yl)cyclohexyl]-5-(trifluoromethyl)benzenesulfonamide]
IC50: 36 nM

Cc1nncn1[C@@H]1CCC[C@H](NS(=O)(=O)c2ccc(-c3ccc(OCC(F)(F)F)nc3)cc2F)C1 [Compound 2Jh, 2-fluoro-N-[(1S,3R)-3-(3-methyl-4H-1,2,4-triazol-4-yl)cyclohexyl]-4-[6-(2,2,2-trifluoroethoxy)pyridin-3-yl]benzenesulfonamide]
IC50: 3.4 nM

CCc1cc(-c2noc(C3CC3)n2)ccc1S(=O)(=O)N[C@H]1CCC[C@@H](n2cnnc2C(F)(F)F)C1 [Compound 2Aa, 4-(5-cyclopropyl-1,2,4-oxadiazol-3-yl)-2-ethyl-N-{(1S,3R)-3-[3-(trifluoromethyl)-4H-1,2,4-triazol-4-yl]cyclohexyl}benzenesulfonamide]
IC50: 5.5 nM

O=S(=O)(N[C@H]1CCC[C@@H](n2cnnc2)C1)c1ccc(-c2noc(C(F)(F)F)n2)cc1C1CC1 [2 Kb, 2-cyclopropyl-N-[(1S,3R)-3-(4H-1,2,4-triazol-4-yl)cyclohexyl]-4-[5-(trifluoromethyl)-1,2,4-oxadiazol-3-yl]benzenesulfonamide]
IC50: 16 nM

O=S(=O)(N[C@H]1CCC[C@@H](n2cnnc2)C1)c1cc(-c2ccc3ncccc3c2)cc(C(F)(F)F)c1 [Compound 3Ap, 3-quinolin-6-yl-N-[(1S,3R)-3-(4H-1,2,4-triazol-4-yl)cyclohexyl]-5-(trifluoromethyl)benzenesulfonamide]
IC50: 3.3 nM

O=S(=O)(N[C@H]1CCC[C@@H](n2cnnc2C2CC2)C1)c1ccc(-c2noc(C3CC(F)(F)C3)n2)cc1OC(F)(F)F [Compound 2Bd, N-[(1S,3R)-3-(3-cycloropyl-4H-1,2,4-triazol-4-yl)cyclohexyl]-4-[5-(3,3-difluorocyclobutyl)-1,2,4-oxadiazol-3-yl]-2-(trifluoromethoxy)benzenesulfonamide]
IC50: 6.3 nM

CC(C)Oc1ccc(-c2ccc(S(=O)(=O)N[C@H]3CCC[C@@H](n4cnnc4)C3)cc2F)cc1 [Compound 2Ed, 2-fluoro-4′-isopropoxy-N-[(1S,3R)-3-(4H-1,2,4-triazol-4-yl)cyclohexyl]biphenyl-4-sulfonamide]
IC50: 15 nM

O=S(=O)(N[C@H]1CCC[C@@H](n2cnnc2)C1)c1cc(-c2ccsc2)cc(C(F)(F)F)c1 [Compound 3Aar, 3-(3-thienyl)-N-[(1S,3R)-3-(4H-1,2,4-triazol-4-yl)cyclohexyl]-5-(trifluoromethyl)benzenesulfonamide]
IC50: 9.2 nM

CCc1cc(-c2cccc(OC)c2)ccc1S(=O)(=O)N[C@H]1CCC[C@@H](n2cnnc2)C1 [Compound 2Ar, 3-ethyl-3′-methoxy-N-[(1S,3R)-3-(4H-1,2,4-triazol-4-yl)cyclohexyl]biphenyl-4-sulfonamide]
IC50: 27 nM

COc1ncccc1-c1cc(F)cc(S(=O)(=O)N[C@H]2CCC[C@@H](n3cnnc3)C2)c1 [Compound 3Fb, 3-fluoro-5-(2-methoxypyridin-3-yl)-N-[(1S,3R)-3-(4H-1,2,4-triazol-4-yl)cyclohexyl]benzenesulfonamide]
IC50: 9 nM

CCc1cc(-c2cccc3cccnc23)cc(S(=O)(=O)N[C@H]2CCC[C@@H](n3cnnc3)C2)c1 [Compound 3Bd, 3-ethyl-5-quinolin-8-yl-N-[(1S,3R)-3-(4H-1,2,4-triazol-4-yl)cyclohexyl]benzenesulfonamide]
IC50: 0.9 nM

CCc1cc(OCCCC(F)(F)F)ccc1S(=O)(=O)N[C@H]1CCC[C@@H](n2cnnc2)C1 [Compound 2Abi, 2-ethyl-N-[(1S,3R)-3-(4H-1,2,4-triazol-4-yl)cyclohexyl]-4-(4,4,4-trifluorobutoxy)benzenesulfonamide]
IC50: 2.7 nM

Cc1nncn1[C@@H]1CCC[C@H](NS(=O)(=O)c2ccc(-c3ccc(OCC(F)(F)F)nc3)cc2OC(F)(F)F)C1 [Compound 2Bbe, N-[(1S,3R)-3-(3-methyl-4H-1,2,4-triazol-4-yl)cyclohexyl]-4-[6-(2,2,2-trifluoroethoxy)pyridin-3-yl]-2-(trifluoromethoxy)benzenesulfonamide]
IC50: 2 nM

Cc1nncn1[C@@H]1CCC[C@H](NS(=O)(=O)c2ccc(OCCCCF)c(F)c2)C1 [Compound 2Fi, 3-fluoro-4-(4-fluorobutoxy)-N-[(1S,3R)-3-(3-methyl-4H-1,2,4-triazol-4-yl)cyclohexyl]benzenesulfonamide]
IC50: 9.7 nM

CCc1cc(-n2cc(C)cn2)ccc1S(=O)(=O)N[C@H]1CCC[C@@H](n2cnnc2)C1 [Compound 6b, 2-ethyl-4-(4-methyl-1H-pyrazol-1-yl)-N-[(1S,3R)-3-(4H-1,2,4-triazol-4-yl)cyclohexyl]benzenesulfonamide]
IC50: 25 nM

CCc1cc(-c2ccc(OCC(F)(F)F)nn2)cc(S(=O)(=O)N[C@H]2CCC[C@@H](n3cnnc3)C2)c1 [Compound 3Bay, 3-ethyl-N-[(1S,3R)-3-(4H-1,2,4-triazol-4-yl)cyclohexyl]-5-[6-(2,2,2-trifluoroethoxy)pyridazin-3-yl]benzenesulfonamide]
IC50: 5.7 nM

O=S(=O)(N[C@H]1CCC[C@@H](n2cnnc2)C1)c1cc(-c2cc(Cl)cnc2F)cc(C(F)(F)F)c1 [Compound 3Aab, 3-(5-chloro-2-fluoropyridin-3-yl)-N-[(1S,3R)-3-(4H-1,2,4-triazol-4-yl)cyclohexyl]-5-(trifluoromethyl)benzenesulfonamide]
IC50: 4 nM

CCOc1ccc(S(=O)(=O)N[C@H]2CCC[C@@H](n3cnnc3)C2)cc1 [Compound 2Maa, 4-ethoxy-N-[(1S,3R)-3-(4H-1,2,4-triazol-4-yl)cyclohexyl]benzenesulfonamide]
IC50: 39 nM

CCCCOc1ccc(S(=O)(=O)N[C@H]2CCC[C@@H](n3cnnc3C)C2)cc1 [Compound 2Nw, 4-butoxy-N-[(1S,3R)-3-(3-methyl-4H-1,2,4-triazol-4-yl)cyclohexyl]benzenesulfonamide]
IC50: 2.8 nM

CCc1cc(-c2ccc(F)cc2)ccc1S(=O)(=O)N[C@H]1CCC[C@@H](n2cnnc2)C1 [Compound 2An, 3-ethyl-4′-fluoro-N-[(1S,3R)-3-(4H-1,2,4-triazol-4-yl)cyclohexyl]benzenesulfonamide]
IC50: 17 nM

CCCCOc1cc(F)c(S(=O)(=O)N[C@H]2CCC[C@@H](n3cnnc3C)C2)cc1F [Compound 2Nae, 4-butoxy-2,5-difluoro-N-[(1S,3R)-3-(3-methyl-4H-1,2,4-triazol-4-yl)cyclohexyl]benzenesulfonamide]
IC50: 5.4 nM

CCc1cc(-c2ccc(F)c(F)c2)ccc1S(=O)(=O)N[C@H]1CCC[C@@H](n2cnnc2)C1 [Compound 2Aw, 3-ethyl-3′,4′-difluoro-N-[(1S,3R)-3-(4H-1,2,4-triazol-4-yl)cyclohexyl]biphenyl-4-sulfonamide]
IC50: 24 nM

CCc1cc(-c2ccc(F)cc2F)ccc1S(=O)(=O)N[C@H]1CCC[C@@H](n2cnnc2)C1 [Compound 2Av, 3-ethyl-2′,4′-difluoro-N-[(1S,3R)-3-(4H-1,2,4-triazol-4-yl)cyclohexyl]biphenyl-4-sulfonamide]
IC50: 16 nM

Cc1nncn1[C@@H]1CCC[C@H](NS(=O)(=O)c2cc(-c3ccc(F)cc3)cc(C(F)(F)F)c2)C1 [Compound 3Ab, 4′-fluoro-N-[(1S,3R)-3-(3-methyl-4H-1,2,4-triazol-4-yl)cyclohexyl]-5-(trifluoromethyl)biphenyl-3-sulfonamide]
IC50: 4.8 nM

CCc1cc(-c2cnc(N)nc2)ccc1S(=O)(=O)N[C@H]1CCC[C@@H](n2cnnc2)C1 [Compound 2Aj, 4-(2-aminopyrimidin-5-yl)-2-ethyl-N-[(1S,3R)-3-(4H-1,2,4-triazol-4-yl)cyclohexyl]benzenesulfonamide]
IC50: 1060 nM

CCc1cc(-c2ccc3c(c2)OCO3)ccc1S(=O)(=O)N[C@H]1CCC[C@@H](n2cnnc2)C1 [Compound 2Ax, 4-(1,3-benzodioxol-5-yl)-2-ethyl-N-[(1S,3R)-3-(4H-1,2,4-triazol-4-yl)cyclohexyl]benzenesulfonamide]
IC50: 38 nM

Cc1nncn1[C@H]1C[C@@H](NS(=O)(=O)c2cc(-c3ccn[nH]3)cc(C(F)(F)F)c2)CC(F)(F)C1 [Compound 9Ae]
IC50: 18 nM

O=S(=O)(N[C@H]1CCC[C@@H](n2cnnc2)C1)c1ccc(-c2ccc(OCC(F)(F)F)nc2)cc1F [Compound 2Ih, 2-fluoro-N-[(1S,3R)-3-(4H-1,2,4-triazol-4-yl)cyclohexyl]-4-[6-(2,2,2-trifluoroethoxy)pyridin-3-yl]benzenesulfonamide]
IC50: 4 nM

O=S(=O)(N[C@H]1CCC[C@@H](n2cnnc2)C1)c1cc(-c2cccc3ccccc23)cc(C(F)(F)F)c1 [Compound 3Ao, 3-(1-naphthyl)-N-[(1S,3R)-3-(4H-1,2,4-triazol-4-yl)cyclohexyl]-5-(trifluoromethyl)benzenesulfonamide]
IC50: 15 nM

O=S(=O)(N[C@H]1CCC[C@@H](n2cnnc2)C1)c1ccc(-c2noc(C3CC3)n2)cc1 [Compound 2Ml, 4-(5-cyclopropyl-1,2,4-oxadiazol-3-yl)-N-[(1S,3R)-3-(4H-1,2,4-triazol-4-yl)cyclohexyl]benzenesulfonamide]
IC50: 243 nM

4-(5-cyclopropyl-1,2,4-oxadiazol-3-yl)-N-[(1R,5S)-3,3-difluoro-5-(4H-1,2,4-triazol-4-yl)cyclohexyl]-3-ethylbiphenyl-4-sulfonamide [Compound 2Cy]
IC50: 7.3 nM
